Drawing on PubChem BioAssay (NCI), this text covers TGI for 17 compounds.

Test systems include U251 CNS; RXF 393 renal; UACC-257 melanoma; OVCAR-8 ovarian; SK-OV-3 ovarian; MDA-MB-231 breast; EKVX NSCLC; SK-MEL-5 melanoma; 786-0 renal; NCI-H522 lung; HCT-15 colon.
What all share (assay): NCI-60 cell line screen, 48 h

Structures are written as SMILES.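 Five compound concentrations were applied to cells in 96-well plates for 48 hours; endpoints were derived by simple linear interpolation of the resulting dose-response curve. TGI: total growth inhibition.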

Consider `O=c1c2cc3c(=O)n4c(cc(-c5ccccc5)c5cc(Cl)ccc54)nc3cc2nc2cc(-c3ccccc3)c3cc(Cl)ccc3n12`, for which the TGI with U251 CNS, in the assay on RXF 393 renal, in the assay on UACC-257 melanoma, in the assay with OVCAR-8 ovarian, in the assay with SK-OV-3 ovarian and in the assay with MDA-MB-231 breast was more than 100 µM each time. Further, the TGI with EKVX NSCLC, with SK-MEL-5 melanoma, with 786-0 renal, in the assay on NCI-H522 lung and with HCT-15 colon was more than 100 µM in each case.
Consider `CS(=O)(=O)c1ccc(N=C/C=C/Nc2ccc(S(C)(=O)=O)cc2)cc1`, for which the TGI in the assay on U251 CNS, in the assay with RXF 393 renal, in the assay on UACC-257 melanoma, in the assay with OVCAR-8 ovarian, in the assay with SK-OV-3 ovarian and in the assay on MDA-MB-231 breast was more than 100 µM in each case. Moreover, the TGI with EKVX NSCLC, in the assay with SK-MEL-5 melanoma, in the assay on 786-0 renal, in the assay with NCI-H522 lung and with HCT-15 colon was more than 100 µM each time.
Take `COc1ccc(Cc2nnc(Nc3ccc(Br)cc3)[nH]c2=O)cc1OC`: the TGI with U251 CNS, with RXF 393 renal, with UACC-257 melanoma, with OVCAR-8 ovarian, in the assay on SK-OV-3 ovarian and in the assay on MDA-MB-231 breast was more than 100 µM each time. Moreover, the TGI with EKVX NSCLC, with SK-MEL-5 melanoma, with 786-0 renal, in the assay with NCI-H522 lung and in the assay with HCT-15 colon was more than 100 µM throughout.
Consider `CN(/N=C/c1cccc2cccnc12)c1ccc(Cl)cc1[N+](=O)[O-]`, for which the TGI in the assay on U251 CNS, with RXF 393 renal, with UACC-257 melanoma, with OVCAR-8 ovarian, in the assay with SK-OV-3 ovarian and in the assay on MDA-MB-231 breast was more than 100 µM each time. The TGI in the assay with EKVX NSCLC, with SK-MEL-5 melanoma, with 786-0 renal, in the assay with NCI-H522 lung and with HCT-15 colon was more than 100 µM in each case.
In the case of `COc1ccccc1C1ON=C(c2ccc([N+](=O)[O-])cc2)N1C12CC3CC(CC(C3)C1)C2` (configuration not stated), the TGI is more than 100 µM with U251 CNS; 60.4 µM with RXF 393 renal; more than 100 µM in the assay with UACC-257 melanoma; more than 100 µM with OVCAR-8 ovarian; more than 100 µM in the assay with SK-OV-3 ovarian; more than 100 µM in the assay on MDA-MB-231 breast. Further, the TGI with EKVX NSCLC, in the assay on SK-MEL-5 melanoma, with 786-0 renal, in the assay on NCI-H522 lung and in the assay with HCT-15 colon was more than 100 µM each time.
Turning to `S=C1CCSc2c(ccc3ccccc23)N1`, the TGI with U251 CNS, in the assay with RXF 393 renal, with UACC-257 melanoma, in the assay with OVCAR-8 ovarian, in the assay on SK-OV-3 ovarian and in the assay on MDA-MB-231 breast was more than 100 µM in each case. Further, the TGI in the assay on EKVX NSCLC, in the assay on SK-MEL-5 melanoma, with 786-0 renal, in the assay on NCI-H522 lung and with HCT-15 colon was more than 100 µM each time.
For the compound `CC(=O)O[C@H]1CC[C@@]2(C)C(=CC[C@@H]3[C@@H]2CC[C@]2(C)c4c(C)nn(-c5ccccc5)c4C[C@@H]32)C1`, the TGI is more than 100 µM in the assay with U251 CNS; 19.3 µM with RXF 393 renal; more than 100 µM with UACC-257 melanoma; more than 100 µM in the assay with OVCAR-8 ovarian; 44.5 µM in the assay with SK-OV-3 ovarian; 50.6 µM in the assay with MDA-MB-231 breast. The TGI is 53.7 µM in the assay with EKVX NSCLC; more than 100 µM in the assay on SK-MEL-5 melanoma; 35.9 µM in the assay with 786-0 renal; 45.3 µM in the assay on NCI-H522 lung; more than 100 µM in the assay with HCT-15 colon.
On to `CC(=O)NC1(c2cc3ccccc3s2)CCCCCC1`, for which the TGI in the assay on U251 CNS is more than 100 µM; with RXF 393 renal, 80.6 µM; with UACC-257 melanoma, more than 100 µM; in the assay with OVCAR-8 ovarian, more than 100 µM; in the assay with SK-OV-3 ovarian, more than 100 µM; in the assay on MDA-MB-231 breast, more than 100 µM. Besides, the TGI is 57.3 µM in the assay on EKVX NSCLC; 66.7 µM with SK-MEL-5 melanoma; more than 100 µM in the assay with 786-0 renal; 39.1 µM in the assay with NCI-H522 lung; more than 100 µM in the assay with HCT-15 colon.
Regarding `N#Cc1c(-c2ccc(Cl)cc2)[nH]c(=O)n(C2OC(CO)C(O)C(O)C2O)c1=O` (configuration not stated), the TGI in the assay with U251 CNS, in the assay with RXF 393 renal, with UACC-257 melanoma, in the assay on OVCAR-8 ovarian, with SK-OV-3 ovarian and in the assay with MDA-MB-231 breast was more than 100 µM throughout. Also, the TGI in the assay with EKVX NSCLC, with SK-MEL-5 melanoma, in the assay on 786-0 renal, with NCI-H522 lung and with HCT-15 colon was more than 100 µM throughout.
Regarding `CCOC(=O)C1=NN(c2ccc([N+](=O)[O-])cc2)[C@@]2(C)C[C@]3(c4ccccc4)N(c4ccc([N+](=O)[O-])cc4)N=C(C(=O)OCC)N3c3ccccc3N12`, the TGI is more than 100 µM in the assay with U251 CNS; more than 100 µM in the assay with RXF 393 renal; more than 100 µM in the assay with UACC-257 melanoma; more than 100 µM in the assay on OVCAR-8 ovarian; more than 100 µM with SK-OV-3 ovarian; 84.4 µM in the assay with MDA-MB-231 breast. Moreover, the TGI in the assay with EKVX NSCLC, in the assay with SK-MEL-5 melanoma, in the assay on 786-0 renal, in the assay on NCI-H522 lung and in the assay with HCT-15 colon was more than 100 µM each time.
In the case of `COC(=O)c1cc(C(=CCC[C@H]2CC[C@@]3(C)C(CCC4C3CC[C@@]3(C)C4CC[C@@H]3C(C)CCCC(C)C)C2)c2cc(Cl)c(O)c(C(=O)OC)c2)cc(Cl)c1O` (some centres not stated), the TGI with U251 CNS, with RXF 393 renal, in the assay on UACC-257 melanoma, with OVCAR-8 ovarian, in the assay on SK-OV-3 ovarian and with MDA-MB-231 breast was more than 10 µM in each case. Further, the TGI in the assay on EKVX NSCLC, with SK-MEL-5 melanoma, with 786-0 renal, in the assay on NCI-H522 lung and with HCT-15 colon was more than 10 µM in each case.
As for `CC(=O)Nc1c(C)cc2c(nc3n2CCC3OC(C)=O)c1[N+](=O)[O-]` (configuration not stated), the TGI in the assay with U251 CNS, with RXF 393 renal, with UACC-257 melanoma, in the assay with OVCAR-8 ovarian, in the assay with SK-OV-3 ovarian and with MDA-MB-231 breast was more than 100 µM in each case. Moreover, the TGI in the assay with EKVX NSCLC, with SK-MEL-5 melanoma, in the assay on 786-0 renal, in the assay with NCI-H522 lung and in the assay on HCT-15 colon was more than 100 µM each time.
In the case of `COc1ccc(CCCNC(=O)c2cc(OC)c(OC)cc2CCO)cc1OC`, the TGI in the assay on U251 CNS, with RXF 393 renal, in the assay with UACC-257 melanoma, in the assay with OVCAR-8 ovarian, with SK-OV-3 ovarian and in the assay on MDA-MB-231 breast was more than 100 µM throughout. Also, the TGI in the assay with EKVX NSCLC, in the assay on SK-MEL-5 melanoma, with 786-0 renal, with NCI-H522 lung and with HCT-15 colon was more than 100 µM throughout.
Consider `CC(C)=CCC/C(C)=C/CC/C(C)=C/CC/C(C)=C/CC/C(C)=C/CC/C(C)=C/CC/C(C)=C/CC/C(C)=C/CC/C(C)=C/CO`, for which the TGI with U251 CNS, in the assay with RXF 393 renal, with UACC-257 melanoma, in the assay with OVCAR-8 ovarian, in the assay with SK-OV-3 ovarian and in the assay with MDA-MB-231 breast was more than 100 µM throughout. For the same compound, the TGI in the assay on EKVX NSCLC, in the assay on SK-MEL-5 melanoma, in the assay with 786-0 renal, in the assay on NCI-H522 lung and in the assay with HCT-15 colon was more than 100 µM in each case.
For the compound `C=C(CCC/C(C)=C/C=C/[C@@H](C)CCCc1ccoc1)C[C@@H]1OC(=O)[C@H](C)[C@@H]1O`, the TGI is 25.4 µM in the assay with U251 CNS; 19.3 µM with RXF 393 renal; 15.1 µM in the assay on UACC-257 melanoma; 21.3 µM in the assay on OVCAR-8 ovarian; 15.8 µM with SK-OV-3 ovarian; 16.9 µM in the assay with MDA-MB-231 breast. Moreover, the TGI came to 19.4 µM in the assay on EKVX NSCLC; 14.3 µM in the assay on SK-MEL-5 melanoma; 31.5 µM in the assay with 786-0 renal; 15.5 µM in the assay on NCI-H522 lung; 21.3 µM in the assay with HCT-15 colon.
Regarding `CC(C)=CC(Cc1ccccc1)S(=O)(=O)c1nc2ccccc2s1` (configuration not stated), the TGI is 29.4 µM in the assay with U251 CNS; 41.9 µM with RXF 393 renal; 54.2 µM with UACC-257 melanoma; 35.1 µM in the assay with OVCAR-8 ovarian; 47.5 µM in the assay with SK-OV-3 ovarian; 52 µM in the assay with MDA-MB-231 breast. Besides, the TGI in the assay on EKVX NSCLC was 41.7 µM; in the assay with SK-MEL-5 melanoma, 27.1 µM; with 786-0 renal, 33.1 µM; in the assay on NCI-H522 lung, 29 µM; with HCT-15 colon it was 49.5 µM.
Regarding `CC1(C)Cc2nc3c(cc2C(=O)C1C=N/C(C#N)=C(\N)C#N)C(=O)C(C=N/C(C#N)=C(\N)C#N)C(C)(C)C3` (configuration not stated), the TGI is 3.14 µM in the assay on U251 CNS; 3.04 µM in the assay on RXF 393 renal; 6.73 µM in the assay on UACC-257 melanoma; 8.71 µM in the assay with OVCAR-8 ovarian; more than 34.9 µM with SK-OV-3 ovarian; 22.1 µM in the assay on MDA-MB-231 breast. Also, the TGI is 6.01 µM in the assay with EKVX NSCLC; 4.66 µM with SK-MEL-5 melanoma; 3.47 µM in the assay with 786-0 renal; 2.3 µM in the assay on NCI-H522 lung; 4.48 µM in the assay on HCT-15 colon.
